Source: US6303591A, “21-hydroxy-6,19-oxidoprogesterone (21OH-6OP) and its use as medicament for treating excess of glucocorticoids” (Applied Research Systems ARS Holding NV, priority 1997, dated 2001)
Entries after “also recorded” stand apart in the source; their conditions may differ.

Assays:
[1] = molecular target: T1, uterus PR (progesterone receptor) (Rattus norvegicus, UniProt Q63449); test: (^3 H)-P4 binding to uterus cytosols (PR); settings: uterus cytosol, 12 h at 0° C., 1 μM cortisol
T1 sequence (Q63449 1-923): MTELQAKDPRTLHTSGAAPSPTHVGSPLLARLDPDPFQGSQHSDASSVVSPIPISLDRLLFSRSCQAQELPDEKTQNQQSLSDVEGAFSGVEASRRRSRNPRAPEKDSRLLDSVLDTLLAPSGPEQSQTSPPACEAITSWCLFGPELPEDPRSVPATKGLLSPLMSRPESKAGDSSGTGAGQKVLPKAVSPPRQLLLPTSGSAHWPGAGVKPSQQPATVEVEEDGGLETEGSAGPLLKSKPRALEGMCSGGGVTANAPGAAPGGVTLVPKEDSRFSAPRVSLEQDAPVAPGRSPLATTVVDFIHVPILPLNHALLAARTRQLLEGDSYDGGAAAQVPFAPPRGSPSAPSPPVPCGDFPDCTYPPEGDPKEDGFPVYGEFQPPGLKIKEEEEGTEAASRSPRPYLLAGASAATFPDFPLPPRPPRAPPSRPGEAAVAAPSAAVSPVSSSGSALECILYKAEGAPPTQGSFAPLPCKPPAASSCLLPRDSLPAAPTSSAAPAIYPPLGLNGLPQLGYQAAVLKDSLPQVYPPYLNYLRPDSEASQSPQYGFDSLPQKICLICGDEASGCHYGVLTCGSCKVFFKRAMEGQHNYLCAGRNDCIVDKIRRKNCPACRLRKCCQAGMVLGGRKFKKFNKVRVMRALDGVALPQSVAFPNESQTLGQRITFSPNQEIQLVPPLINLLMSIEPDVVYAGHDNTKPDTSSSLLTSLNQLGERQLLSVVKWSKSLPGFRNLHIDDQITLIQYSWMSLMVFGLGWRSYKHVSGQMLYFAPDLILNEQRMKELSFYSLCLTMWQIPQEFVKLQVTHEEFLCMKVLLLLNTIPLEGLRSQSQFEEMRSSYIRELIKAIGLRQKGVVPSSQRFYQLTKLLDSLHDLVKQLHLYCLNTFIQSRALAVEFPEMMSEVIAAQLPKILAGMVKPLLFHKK
Experimental: (§1) Binding Assay: Adrenalectomized male Sprague-Dawley rats were bled to death by heart puncture. Cold 0.9% NaCI was injected profusely through the aorta until organs were completely blanched. Thymuses were used as a source of GR and kidneys as a source of MR. Homogenization and incubation conditions were performed as previously described, (14) and (15), respectively. Briefly, homogenates performed in cold TEGM buffer at pH 7.4 (0.1 M Tris-HCl, 10 mM EDTA, 10 mM α-mercaptoethanol, 20 mM Na2 MoO4, 25% glycerol, 0.1 mM PMSF, 2.0 TIU/ml aprotinin and 1 mg% Leupeptin) were centrifuged at 37,000 rev. for 30 min at 0° C. Supernatants from this centrifugation are referred to as "cytosol". […] (^3 H)-P4 binding to uterus PR was assayed on immature female rats according to Jordan et al (16).
Relative binding affinity (RBA) for partially purified CBG was determined by steroid competition for (^3 H)-B binding as described previously (14).

type II sites (GR) = molecular target: T2, type II sites (GR) (Rattus norvegicus, UniProt P06536); test: tracer binding (Scatchard) to kidney type II sites (GR); settings: kidney cytosol, 2.5 μM 21OH-6OP
T2 construct: type II receptors in kidney cytosols; from tissue; host or cells: kidney cytosol, adrenalectomized male Sprague-Dawley rats
T2 sequence (P06536 1-795): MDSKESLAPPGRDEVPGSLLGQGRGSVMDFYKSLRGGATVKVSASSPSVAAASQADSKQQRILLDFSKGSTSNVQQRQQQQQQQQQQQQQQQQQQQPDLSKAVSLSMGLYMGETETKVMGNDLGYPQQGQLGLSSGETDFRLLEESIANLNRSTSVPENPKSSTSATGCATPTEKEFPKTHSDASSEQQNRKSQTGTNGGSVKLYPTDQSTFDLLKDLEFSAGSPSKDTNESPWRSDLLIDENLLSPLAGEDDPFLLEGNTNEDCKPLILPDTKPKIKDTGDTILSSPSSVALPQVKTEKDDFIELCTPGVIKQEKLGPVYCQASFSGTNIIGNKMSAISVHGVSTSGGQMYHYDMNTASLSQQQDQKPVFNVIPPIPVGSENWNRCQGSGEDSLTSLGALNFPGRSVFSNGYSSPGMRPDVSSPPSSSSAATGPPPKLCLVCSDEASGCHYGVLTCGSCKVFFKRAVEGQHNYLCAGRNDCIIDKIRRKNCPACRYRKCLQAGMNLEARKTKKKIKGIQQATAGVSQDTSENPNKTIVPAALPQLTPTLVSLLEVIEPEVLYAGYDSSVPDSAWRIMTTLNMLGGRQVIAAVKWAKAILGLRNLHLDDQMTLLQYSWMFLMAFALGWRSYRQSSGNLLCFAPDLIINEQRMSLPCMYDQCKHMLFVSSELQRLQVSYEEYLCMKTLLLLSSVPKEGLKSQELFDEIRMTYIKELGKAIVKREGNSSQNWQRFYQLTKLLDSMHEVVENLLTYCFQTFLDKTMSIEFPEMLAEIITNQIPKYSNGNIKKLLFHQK
Experimental: as §1
To study the binding of ALDO to kidney- MR without the competitive influence of the relatively more abundant GR, GR was removed with the specific ligand RU28362 (7).
The calculated Kd for type I sites in different conditions ranges between 0.4 and 1 nM (Table 1) which is at least eighty times higher than the affinity for type II sites.

SMILES: C[C@]12CC[C@H]3[C@@H](C[C@H]4OC[C@@]35CCC(=O)C=C45)[C@@H]1CC[C@@H]2C(=O)CO [21OH-6OP, 21-hydroxy-6,19-oxidoprogesterone]
- displacement of (^3 H)-P4 from uterus receptors / cross-reaction with PR [1]: unable to cross-react with uterus-PR or kidney-MR; also recorded: does not cross-react with progesterone receptor; also recorded: as weakly as the negative control 17β-estradiol; also recorded: no ability to interact with MR nor PR; also recorded: does not cross-react with PR
- masking of (^3 H)-ALDO cross-reaction with GR / block of type II receptors (type II sites (GR)): able to mask the cross reaction of (^3 H)-ALDO with GR; also recorded: able to block type II receptors in kidney cytosols
